The target of assay [1] is Glycogen synthase kinase-3 beta (Homo sapiens, UniProt P49841). Format: cell-based, Sf9.
Assay [2] addresses Cyclin-dependent kinase 5/CDK5 activator 1 (Homo sapiens, UniProt Q00535). Format: cell-based, Sf9.
In assay [3] the target is Dual specificity protein kinase CLK2 (Homo sapiens, UniProt P49760).
Assay [4] addresses Casein kinase I isoform epsilon (Homo sapiens, UniProt P49674).
Assay [5] deals with T1, Dual specificity tyrosine-phosphorylation-regulated kinase 4 (Homo sapiens, UniProt Q9NR20).
T1 sequence (Q9NR20 whole entry): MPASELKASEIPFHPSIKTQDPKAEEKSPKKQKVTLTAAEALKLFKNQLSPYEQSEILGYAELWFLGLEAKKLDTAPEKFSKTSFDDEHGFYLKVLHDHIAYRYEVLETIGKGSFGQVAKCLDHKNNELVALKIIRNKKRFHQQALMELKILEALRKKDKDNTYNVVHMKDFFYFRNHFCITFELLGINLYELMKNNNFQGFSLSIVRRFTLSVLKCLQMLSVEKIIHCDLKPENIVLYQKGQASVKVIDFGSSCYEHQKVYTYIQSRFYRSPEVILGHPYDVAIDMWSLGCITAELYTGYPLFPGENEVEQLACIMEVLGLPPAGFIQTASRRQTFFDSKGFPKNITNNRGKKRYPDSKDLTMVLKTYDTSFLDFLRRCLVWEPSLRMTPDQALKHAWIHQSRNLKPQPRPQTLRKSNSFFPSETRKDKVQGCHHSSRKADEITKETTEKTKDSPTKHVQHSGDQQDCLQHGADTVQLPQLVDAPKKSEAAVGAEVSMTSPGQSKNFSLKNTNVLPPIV

The target of assay [6] is Dual specificity protein kinase CLK3 (Homo sapiens, UniProt P49761). It is filed as cell-based, Sf9.
Dual specificity protein kinase CLK3, sequence (P49761 whole entry): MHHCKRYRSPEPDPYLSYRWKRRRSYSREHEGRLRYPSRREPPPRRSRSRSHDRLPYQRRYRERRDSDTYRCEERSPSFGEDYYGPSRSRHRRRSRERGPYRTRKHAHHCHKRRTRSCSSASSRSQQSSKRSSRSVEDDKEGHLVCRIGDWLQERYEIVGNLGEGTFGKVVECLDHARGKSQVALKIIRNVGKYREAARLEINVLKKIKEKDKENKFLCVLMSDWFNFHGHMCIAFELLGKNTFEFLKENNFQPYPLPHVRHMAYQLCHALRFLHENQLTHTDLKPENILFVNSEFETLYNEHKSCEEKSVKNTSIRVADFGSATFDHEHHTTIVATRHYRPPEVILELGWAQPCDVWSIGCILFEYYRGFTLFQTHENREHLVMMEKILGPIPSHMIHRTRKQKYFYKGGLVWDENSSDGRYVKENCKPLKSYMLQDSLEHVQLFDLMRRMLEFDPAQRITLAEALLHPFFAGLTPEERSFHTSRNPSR
Assay [7] concerns the target T2, Dual specificity tyrosine-phosphorylation-regulated kinase 2 (Homo sapiens, UniProt Q92630).
T2 sequence (Q92630 whole entry): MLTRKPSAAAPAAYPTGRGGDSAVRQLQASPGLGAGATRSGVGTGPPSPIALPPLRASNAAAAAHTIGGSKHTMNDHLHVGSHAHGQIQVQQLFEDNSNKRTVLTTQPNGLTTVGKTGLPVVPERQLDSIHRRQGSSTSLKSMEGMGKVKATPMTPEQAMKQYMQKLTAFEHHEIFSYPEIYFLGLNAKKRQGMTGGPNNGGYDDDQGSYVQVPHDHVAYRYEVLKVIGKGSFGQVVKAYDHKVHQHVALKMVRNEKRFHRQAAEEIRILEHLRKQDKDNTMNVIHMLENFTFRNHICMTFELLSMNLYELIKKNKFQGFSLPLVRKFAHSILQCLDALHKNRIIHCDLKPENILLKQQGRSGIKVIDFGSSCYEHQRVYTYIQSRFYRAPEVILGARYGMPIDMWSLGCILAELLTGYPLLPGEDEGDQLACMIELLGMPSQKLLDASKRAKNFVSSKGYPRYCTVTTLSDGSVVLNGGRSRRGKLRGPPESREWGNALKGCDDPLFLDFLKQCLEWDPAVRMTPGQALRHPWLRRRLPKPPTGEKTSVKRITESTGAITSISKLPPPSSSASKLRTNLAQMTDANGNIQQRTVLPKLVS

By IC50 is commonly meant the midpoint of a concentration-inhibition curve. Higher therefore signals weaker potency in that assay.

Glycogen synthase kinase-3 beta, sequence (P49841 whole entry): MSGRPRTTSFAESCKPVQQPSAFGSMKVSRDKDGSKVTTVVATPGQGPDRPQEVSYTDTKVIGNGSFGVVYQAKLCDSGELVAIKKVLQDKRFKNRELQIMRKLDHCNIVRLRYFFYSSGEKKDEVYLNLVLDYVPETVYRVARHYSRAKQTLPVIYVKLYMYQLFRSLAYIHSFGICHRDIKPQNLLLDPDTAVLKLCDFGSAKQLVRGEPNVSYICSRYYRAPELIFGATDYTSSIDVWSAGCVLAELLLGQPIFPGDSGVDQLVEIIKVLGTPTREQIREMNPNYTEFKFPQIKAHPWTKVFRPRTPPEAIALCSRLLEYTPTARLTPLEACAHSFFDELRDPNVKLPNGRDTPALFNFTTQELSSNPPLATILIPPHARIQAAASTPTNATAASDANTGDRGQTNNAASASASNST
Casein kinase I isoform epsilon, sequence (P49674 whole entry, canonical isoform): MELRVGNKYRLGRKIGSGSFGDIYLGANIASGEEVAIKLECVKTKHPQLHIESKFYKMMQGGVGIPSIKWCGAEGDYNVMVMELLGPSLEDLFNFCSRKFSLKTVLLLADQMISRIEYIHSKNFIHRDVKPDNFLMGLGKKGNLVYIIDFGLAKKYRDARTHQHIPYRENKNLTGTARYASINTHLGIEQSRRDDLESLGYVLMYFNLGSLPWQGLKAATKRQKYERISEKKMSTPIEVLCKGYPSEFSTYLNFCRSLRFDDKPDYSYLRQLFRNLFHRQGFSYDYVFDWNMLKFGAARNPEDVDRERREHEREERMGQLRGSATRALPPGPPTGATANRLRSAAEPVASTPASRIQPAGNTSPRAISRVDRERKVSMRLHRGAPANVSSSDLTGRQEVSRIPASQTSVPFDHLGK
Dual specificity protein kinase CLK2, sequence (P49760 whole entry, canonical isoform): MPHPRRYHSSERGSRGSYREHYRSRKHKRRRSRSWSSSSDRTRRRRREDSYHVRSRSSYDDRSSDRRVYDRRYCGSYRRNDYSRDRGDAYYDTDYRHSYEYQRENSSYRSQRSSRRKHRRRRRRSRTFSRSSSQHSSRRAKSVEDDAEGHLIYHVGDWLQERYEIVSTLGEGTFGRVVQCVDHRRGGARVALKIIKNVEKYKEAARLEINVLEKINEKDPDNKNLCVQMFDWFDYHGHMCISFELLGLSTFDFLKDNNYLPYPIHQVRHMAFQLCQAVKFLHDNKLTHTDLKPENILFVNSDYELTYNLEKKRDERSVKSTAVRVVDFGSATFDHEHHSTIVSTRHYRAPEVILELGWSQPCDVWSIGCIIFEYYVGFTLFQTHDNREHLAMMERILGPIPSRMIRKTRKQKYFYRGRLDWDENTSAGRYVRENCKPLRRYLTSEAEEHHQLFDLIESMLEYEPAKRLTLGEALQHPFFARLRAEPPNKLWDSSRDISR
Cyclin-dependent kinase 5/CDK5 activator 1, sequence (Q00535 whole entry): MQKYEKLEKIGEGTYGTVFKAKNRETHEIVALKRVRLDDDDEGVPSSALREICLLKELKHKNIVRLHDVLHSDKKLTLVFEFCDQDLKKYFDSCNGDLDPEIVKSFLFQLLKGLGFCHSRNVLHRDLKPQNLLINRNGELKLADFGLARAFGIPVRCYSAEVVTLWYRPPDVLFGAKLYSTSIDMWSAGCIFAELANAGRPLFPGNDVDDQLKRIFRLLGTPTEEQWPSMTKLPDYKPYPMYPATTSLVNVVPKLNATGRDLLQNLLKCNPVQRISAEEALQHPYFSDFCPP
Cyclin-dependent kinase 5/CDK5 activator 1, sequence (Q15078 whole entry, further chain): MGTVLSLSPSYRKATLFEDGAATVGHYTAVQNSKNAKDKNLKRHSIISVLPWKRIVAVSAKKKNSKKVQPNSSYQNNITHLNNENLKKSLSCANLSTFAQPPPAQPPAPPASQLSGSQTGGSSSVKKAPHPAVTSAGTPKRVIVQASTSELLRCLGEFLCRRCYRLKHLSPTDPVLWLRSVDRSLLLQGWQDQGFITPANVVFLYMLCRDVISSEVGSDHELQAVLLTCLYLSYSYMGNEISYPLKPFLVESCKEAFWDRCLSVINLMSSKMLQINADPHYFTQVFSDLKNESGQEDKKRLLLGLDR

On to `O=C1NC(Nc2cccnc2)=N/C1=C\c1ccc2ncsc2c1`, for which the concentration for half-maximal inhibition (IC50) in assay [1] is over 10000 nM; in assay [2], over 10000 nM; in assay [3], 84 nM; in assay [4], over 10000 nM; in assay [5], 1330 nM; in assay [6], 201 nM.

For the compound `O=C1NC(N[C@@H]2CCC[C@H]2O)=N/C1=C\c1ccc2ncsc2c1` (racemic), the IC50 in assay [1] was over 10000 nM; in assay [2], over 10000 nM; in assay [7], 472 nM; in assay [4] it was over 10000 nM; in assay [5], 553 nM; in assay [6], 224 nM.

Regarding `COC12CC3CC(CC(NC4=N/C(=C\c5ccc6ncsc6c5)C(=O)N4)(C3)C1)C2`, the IC50 came to 455 nM in assay [1]; 304 nM in assay [2]; 1760 nM in assay [4]; 284 nM in assay [5]; 284 nM in assay [6].

In the case of `O=C1NC(N[C@@H]2CCC[C@@H]2O)=N/C1=C\c1ccc2ncsc2c1` (racemic), the IC50 in assay [1] was over 10000 nM; in assay [2] it was over 10000 nM; in assay [7], 1210 nM; in assay [4] it was over 10000 nM; in assay [5], 448 nM; in assay [6], 537 nM.

For the compound `CC[C@@H](CO)NC1=N/C(=C\c2ccc3ncsc3c2)C(=O)N1`, the IC50 in assay [1] was over 10000 nM; in assay [2] it was over 10000 nM; in assay [3], 474 nM; in assay [7], 1730 nM; in assay [4] it was over 10000 nM; in assay [5] it was 3160 nM. This compound returned an IC50 in assay [6] of 1600 nM.

For `O=C1NC(NC2CCC(F)(F)CC2)=N/C1=C\c1ccc2ncsc2c1`, the 50% inhibitory concentration (IC50) in assay [1] is over 10000 nM; in assay [2], over 10000 nM; in assay [7], 455 nM; in assay [4] it was over 10000 nM; in assay [5] it was 1970 nM; in assay [6] it was 467 nM.

As for `O=C1NC(NC2C3CC4CC(C3)CC2C4)=N/C1=C\c1ccc2ncsc2c1` (stereo not drawn), the IC50 in assay [1] was 4760 nM; in assay [2], over 10000 nM; in assay [3], 19 nM; in assay [7] it was 573 nM; in assay [4] it was over 10000 nM; in assay [5], 127 nM. The same compound had an IC50 in assay [6] of 1210 nM.

For the compound `O=C1NC(NCC23CC4CC(CC(C4)C2)C3)=N/C1=C\c1ccc2ncsc2c1`, the IC50 in assay [1] was over 10000 nM; in assay [2], over 10000 nM; in assay [3], 37 nM; in assay [7], over 10000 nM; in assay [5], 3700 nM; in assay [6], 1480 nM.

Turning to `O=C1NC(N[C@@H](CO)CC2CC2)=N/C1=C\c1ccc2ncsc2c1`, the IC50 in assay [1] was 4390 nM; in assay [2], over 10000 nM; in assay [3] it was 42 nM; in assay [7] it was 8210 nM; in assay [4] it was over 10000 nM; in assay [5], 731 nM. In addition, half-maximal inhibition in assay [6] (IC50) was put at 686 nM.

For `COC[C@H](NC1=N/C(=C\c2ccc3ncsc3c2)C(=O)N1)c1ccccc1`, the IC50 was 5170 nM in assay [1]; over 10000 nM in assay [2]; 15 nM in assay [3]; 159 nM in assay [7]; over 10000 nM in assay [4]; 335 nM in assay [5]. In assay [6], this compound displayed an IC50 of 127 nM.

On to `O=C1NC(NC23CC4CC(CC(NC(=O)C5CC5)(C4)C2)C3)=N/C1=C\c1ccc2ncsc2c1`, for which the half-inhibitory concentration (IC50) worked out at 366 nM in assay [1]; 1450 nM in assay [2]; 2270 nM in assay [4]; 270 nM in assay [5]; 658 nM in assay [6].

Turning to `COC[C@@H](NC1=N/C(=C\c2ccc3ncsc3c2)C(=O)N1)c1ccccc1`, the IC50 in assay [1] is 5600 nM; in assay [2], over 10000 nM; in assay [3], 616 nM; in assay [7], 260 nM; in assay [4], over 10000 nM; in assay [5], 3790 nM. This compound yielded an IC50 in assay [6] of 450 nM.

Regarding `CN(C)C12CC3CC(CC(NC4=N/C(=C\c5ccc6ncsc6c5)C(=O)N4)(C3)C1)C2`, the IC50 in assay [1] came to 1330 nM; in assay [2], 5010 nM; in assay [4], 1480 nM; in assay [5], 411 nM; in assay [6], 1800 nM.

With `O=C1NC(Nc2ccc(F)cc2)=N/C1=C\c1ccc2ncsc2c1`, the IC50 in assay [1] was over 10000 nM; in assay [2], over 10000 nM; in assay [3], 407 nM; in assay [7] it was 743 nM; in assay [4] it was over 10000 nM; in assay [6], 1820 nM.

Consider `CS(=O)(=O)NC12CC3CC(CC(NC4=N/C(=C\c5ccc6ncsc6c5)C(=O)N4)(C3)C1)C2`, for which the concentration for half-maximal inhibition (IC50) in assay [1] came to 511 nM; in assay [2] it was 1540 nM; in assay [4] it was 5810 nM; in assay [5] it was 233 nM; in assay [6], 1020 nM.

On to `NCC(NC1=N/C(=C\c2ccc3ncsc3c2)C(=O)N1)c1ccccc1` (stereo not drawn), for which the figures for the IC50 in assay [1] and in assay [2] were 616 nM and 943 nM, respectively.

Turning to `Cn1ccc(NC2=N/C(=C\c3ccc4ncsc4c3)C(=O)N2)n1`, the IC50 was 2580 nM in assay [1]; over 10000 nM in assay [2]; 111 nM in assay [3]; 1130 nM in assay [7]; over 10000 nM in assay [4]; 4160 nM in assay [5]. Besides, the IC50 in assay [6] was found to be 201 nM.

For the compound `O=C1NC(NC23CC4CC(CC(F)(C4)C2)C3)=N/C1=C\c1ccc2ncsc2c1`, the IC50 turned out to be 169 nM in assay [1], 146 nM in assay [2], 612 nM in assay [4] and 194 nM in assay [6].

With `O=C1NC(NC2CCCCC(F)(F)C2)=N/C1=C\c1ccc2ncsc2c1` (racemic), the 50% inhibitory concentration (IC50) was found to be 1360 nM in assay [1], 602 nM in assay [2], 420 nM in assay [4] and 174 nM in assay [5].

On to `CC(=O)NC12CC3CC(C1)CC(NC1=N/C(=C\c4ccc5ncsc5c4)C(=O)N1)(C3)C2`, for which the IC50 in assay [1] came out at 663 nM; in assay [2], 610 nM; in assay [4], 1200 nM; in assay [5] it was 263 nM; in assay [6], 610 nM.

For `NC[C@H](NC1=N/C(=C\c2ccc3ncsc3c2)C(=O)N1)c1ccccc1`, the IC50 in assay [1] worked out at 1110 nM; in assay [2], 2340 nM.

Take `NC[C@@H](NC1=N/C(=C\c2ccc3ncsc3c2)C(=O)N1)c1ccccc1`: the results for the IC50 in assay [1] and in assay [2] were 102 nM and 2520 nM, respectively.

As for `O=C1NC(N[C@@H]2CCOC2)=N/C1=C\c1ccc2ncsc2c1`, the IC50 is over 10000 nM in assay [1]; over 10000 nM in assay [2]; 404 nM in assay [3]; over 10000 nM in assay [4]; 2780 nM in assay [5]; 747 nM in assay [6].

Regarding `O=C1NC(NC23CC4CC(CC2C4)C3)=N/C1=C\c1ccc2ncsc2c1`, the IC50 is 855 nM in assay [1], 3210 nM in assay [2], 2430 nM in assay [4] and 114 nM in assay [6].

With `COc1nc(C)ccc1NC1=N/C(=C\c2ccc3ncsc3c2)C(=O)N1`, the IC50 in assay [1] is 8970 nM; in assay [2], over 10000 nM; in assay [7], 1870 nM; in assay [4], over 10000 nM; in assay [6], over 10000 nM.

In the case of `O=C1NC(NC23CC4CC(CC(O)(C4)C2)C3)=N/C1=C\c1ccc2ncsc2c1`, the IC50 in assay [1] came out at 317 nM; in assay [2], 332 nM; in assay [4] it was 1100 nM; in assay [6] it was 215 nM.

`O=C1NC(N[C@H]2CCOC2)=N/C1=C\c1ccc2ncsc2c1`: the IC50 is 6570 nM in assay [1]; over 10000 nM in assay [2]; 398 nM in assay [3]; over 10000 nM in assay [4]; 1040 nM in assay [5]; 405 nM in assay [6].

Turning to `CNCC(NC1=N/C(=C\c2ccc3ncsc3c2)C(=O)N1)c1ccccc1` (racemic), the IC50 stood at 227 nM in assay [1]; 2010 nM in assay [2]; 30 nM in assay [3]; 6350 nM in assay [4]; 274 nM in assay [5].

In the case of `CN1CCN(c2ccc(NC3=N/C(=C\c4ccc5ncsc5c4)C(=O)N3)cc2)CC1`, the IC50 in assay [1] was 999 nM; in assay [2], over 10000 nM; in assay [3] it was 28 nM; in assay [4] it was 3430 nM; in assay [5], 244 nM; in assay [6], 1060 nM.
